Values after ≈ are worked out from the molar mass of the structure shown. Each block holds one compound with its values, some of them ahead of it.
Tests used:
Test in all cases: Agar dilution MIC
Conditions in all cases: 16-20 hours
E. faecium MRO 04198 = assay type: cell-based, Enterococcus faecium
Procedure: (§1) Briefly, the compounds of invention were weighed, dissolved in dimethyl sulfoxide, serially two fold diluted in the same solvent and then incorporated into molten Mueller Hinton Agar (MHA) in a petridish just before solidification, with each petridish containing a different concentration of a compound.
(§2) The bacterial inoculum was prepared by picking 3 to 5 well isolated bacterial colonies with the same morphological appearance from an 18-24 hours old culture with an inoculating loop, transferring the growth to a tube containing 3 mL of normal saline and adjusting the turbidity of the saline suspension to 0.5 Mc Farland Turbidity Standard equivalent to a bacterial population of 1.5×10^8 colony forming units (CFU) per mL of suspension. The suspension was diluted 1:10 in saline (i.e. 0.5 mL suspension 4.5 mL saline) to get a bacterial population of 1.5×10^7 CFU/mL as inoculum.
(§3) The inoculated petridishes were incubated at 35° C. in an ambient atmosphere for 16-20 hours.

E. faecium ATCC 700221 = assay type: cell-based, Enterococcus faecium
Procedure: as §1, §2, §3

E. faecium MRO 04038 = assay type: cell-based, Enterococcus faecium
Procedure: as §1, §2, §3

E. faecium MRO 04037 = assay type: cell-based, Enterococcus faecium
Procedure: as §1, §2, §3

S. aureus MRO 00048 = assay type: cell-based, Staphylococcus aureus
Procedure: as §1, §2, §3

S. aureus MRO 00059 = assay type: cell-based, Staphylococcus aureus
Procedure: as §1, §2, §3

S. aureus MRO 00055 = assay type: cell-based, Staphylococcus aureus
Procedure: as §1, §2, §3

S. aureus MRO 002053 = assay type: cell-based, Staphylococcus aureus
Procedure: as §1, §2, §3

S. aureus MRO 0001 = assay type: cell-based, Staphylococcus aureus
Procedure: as §1, §2, §3

S. aureus ATCC 43300 = assay type: cell-based, Staphylococcus aureus
Procedure: as §1, §2, §3

S. aureus ATCC 29213 = assay type: cell-based, Staphylococcus aureus
Procedure: as §1, §2, §3

S. aureus MRO 00030 = assay type: cell-based, Staphylococcus aureus
Procedure: as §1, §2, §3

S. aureus MRO 0003 = assay type: cell-based, Staphylococcus aureus
Procedure: as §1, §2, §3

S. aureus MRO 00013 = assay type: cell-based, Staphylococcus aureus
Procedure: as §1, §2, §3

[1] = system: S. haemolyticus MRO 02064; assay type: cell-based
Procedure: as §1, §2, §3

[2] = system: S. epidermidis MRO 002046; assay type: cell-based
Procedure: as §1, §2, §3

[3] = system: S. saprophyticus MRO 02003; assay type: cell-based
Procedure: as §1, §2, §3

S. epidermidis MRO 02045 = assay type: cell-based
Procedure: as §1, §2, §3

S. epidermidis MRO 02002 = assay type: cell-based
Procedure: as §1, §2, §3

S. epidermidis MRO 02095 = assay type: cell-based
Procedure: as §1, §2, §3

[4] = system: M. catarrhalis ATCC 43617; assay type: cell-based, Moraxella catarrhalis
Procedure: as §1, §2, §3

[5] = system: M. catarrhalis ATCC 43627; assay type: cell-based, Moraxella catarrhalis
Procedure: as §1, §2, §3

[6] = system: M. catarrhalis ATCC 43628; assay type: cell-based, Moraxella catarrhalis
Procedure: as §1, §2, §3

E. faecalis ATCC 29212 = assay type: cell-based, Enterococcus faecalis
Procedure: as §1, §2, §3

E. faecalis MRO 04035 = assay type: cell-based, Enterococcus faecalis
Procedure: as §1, §2, §3

E. faecalis ATCC 51299 = assay type: cell-based, Enterococcus faecalis
Procedure: as §1, §2, §3

E. faecalis MRO 04205 = assay type: cell-based, Enterococcus faecalis
Procedure: as §1, §2, §3

E. faecalis MRO 04050 = assay type: cell-based, Enterococcus faecalis
Procedure: as §1, §2, §3

MIC (E. faecium MRO 04198; Enterococcus faecium, MRO04198, 35° C., read-out: Antimicrobial Screening (MIC)): 0.5 µg/mL (≈ 1.04 µM)
MIC (E. faecium ATCC 700221; Enterococcus faecium, ATCC700221, 35° C., read-out: Antimicrobial Screening (MIC)): 0.5 µg/mL (≈ 1.04 µM)
MIC (E. faecium MRO 04038; Enterococcus faecium, MRO04038, 35° C., read-out: Antimicrobial Screening (MIC)): 0.5 µg/mL (≈ 1.04 µM)
MIC (E. faecium MRO 04037; Enterococcus faecium, MRO04037, 35° C., read-out: Antimicrobial Screening (MIC)): 0.5 µg/mL (≈ 1.04 µM)
MIC (S. aureus MRO 00048; Staphylococcus aureus, MRO00048, 35° C., read-out: Antimicrobial Screening (MIC)): 0.5 µg/mL (≈ 1.04 µM)
MIC (S. aureus MRO 00059; Staphylococcus aureus, MRO00059, 35° C., read-out: Antimicrobial Screening (MIC)): 0.5 µg/mL (≈ 1.04 µM)
MIC (S. aureus MRO 00055; Staphylococcus aureus, MRO00055, 35° C., read-out: Antimicrobial Screening (MIC)): 1 µg/mL (≈ 2.09 µM)
MIC (S. aureus MRO 002053; Staphylococcus aureus, MRO002053, 35° C., read-out: Antimicrobial Screening (MIC)): 0.5 µg/mL (≈ 1.04 µM)
MIC (S. aureus MRO 0001; Staphylococcus aureus, MRO0001, 35° C., read-out: Antimicrobial Screening (MIC)): 0.5 µg/mL (≈ 1.04 µM)
MIC (S. aureus ATCC 43300; Staphylococcus aureus, ATCC43300, 35° C., read-out: Antimicrobial Screening (MIC)): 1 µg/mL (≈ 2.09 µM)
MIC (S. aureus ATCC 29213; Staphylococcus aureus, ATCC29213, 35° C., read-out: Antimicrobial Screening (MIC)): 1 µg/mL (≈ 2.09 µM)
MIC (S. aureus MRO 00030; Staphylococcus aureus, MRO00030, 35° C., read-out: Antimicrobial Screening (MIC)): 0.5 µg/mL (≈ 1.04 µM)
MIC (S. aureus MRO 0003; Staphylococcus aureus, MRO0003, 35° C., read-out: Antimicrobial Screening (MIC)): 1 µg/mL (≈ 2.09 µM)
MIC (S. aureus MRO 00013; Staphylococcus aureus, MRO00013, 35° C., read-out: Antimicrobial Screening (MIC)): 1 µg/mL (≈ 2.09 µM)
MIC ([2]; Staphylococcus epidermidis, MRO002046, 35° C., read-out: Antimicrobial Screening (MIC)): 0.5 µg/mL (≈ 1.04 µM)
MIC ([3]; Staphylococcus saprophyticus, MRO02003, 35° C., read-out: Antimicrobial Screening (MIC)): 1 µg/mL (≈ 2.09 µM)
MIC (S. epidermidis MRO 02045; Staphylococcus epidermidis, MRO02045, 35° C., read-out: Antimicrobial Screening (MIC)): 0.5 µg/mL (≈ 1.04 µM)
MIC (S. epidermidis MRO 02002; Staphylococcus epidermidis, MRO02002, 35° C., read-out: Antimicrobial Screening (MIC)): 0.5 µg/mL (≈ 1.04 µM)
MIC (S. epidermidis MRO 02095; Staphylococcus epidermidis, MRO02095, 35° C., read-out: Antimicrobial Screening (MIC)): 0.5 µg/mL (≈ 1.04 µM)
MIC ([4]; Moraxella catarrhalis, ATCC43617, 35° C., read-out: Antimicrobial Screening (MIC)): 2 µg/mL (≈ 4.18 µM)
MIC ([5]; Moraxella catarrhalis, ATCC43627, 35° C., read-out: Antimicrobial Screening (MIC)): 2 µg/mL (≈ 4.18 µM)
MIC ([6]; Moraxella catarrhalis, ATCC43628, 35° C., read-out: Antimicrobial Screening (MIC)): 2 µg/mL (≈ 4.18 µM)
MIC (E. faecalis ATCC 29212; Enterococcus faecalis, ATCC29212, 35° C., read-out: Antimicrobial Screening (MIC)): 0.5 µg/mL (≈ 1.04 µM)
MIC (E. faecalis MRO 04035; Enterococcus faecalis, MRO04035, 35° C., read-out: Antimicrobial Screening (MIC)): 0.5 µg/mL (≈ 1.04 µM)
MIC (E. faecalis ATCC 51299; Enterococcus faecalis, ATCC51299, 35° C., read-out: Antimicrobial Screening (MIC)): 0.5 µg/mL (≈ 1.04 µM)
MIC (E. faecalis MRO 04205; Enterococcus faecalis, MRO04205, 35° C., read-out: Antimicrobial Screening (MIC)): 0.5 µg/mL (≈ 1.04 µM)
MIC (E. faecalis MRO 04050; Enterococcus faecalis, MRO04050, 35° C., read-out: Antimicrobial Screening (MIC)): 0.5 µg/mL (≈ 1.04 µM)
Structure (SMILES): COC(=S)NC[C@H]1CN(c2ccc(N3CCN(C(=O)Cn4cnnn4)CC3)c(F)c2)C(=O)O1 [Example 72, (S)—O-Methyl (3-(4-(4-(2-(1H-tetrazol-1-yl)acetyl)piperazin-1-yl)-3-fluorophenyl)-2-oxooxazolidin-5-yl)methylcarbamothioate]
MIC ([1]; Staphylococcus haemolyticus, MRO02064, 35° C., read-out: Antimicrobial Screening (MIC)): 0.5 µg/mL (≈ 1.04 µM)

Structure (SMILES): COC(=S)NC[C@H]1CN(c2ccc(N3CCN(C(=S)n4ccnc4)CC3)c(F)c2)C(=O)O1 [Example 76, (S)—O-Methyl(3-(4-(4-(1H-imidazole-1-carbonothioyl)piperazin-1-yl)-3-fluorophenyl)-2-oxooxazolidin-5-yl)methylcarbamothioate]
Antimicrobial Screening (MIC) (E. faecium MRO 04198; 35° C.): 0.25 µg/mL
Antimicrobial Screening (MIC) (E. faecium ATCC 700221; 35° C.): 0.25 µg/mL
Antimicrobial Screening (MIC) (E. faecium MRO 04038; 35° C.): 0.25 µg/mL
Antimicrobial Screening (MIC) (E. faecium MRO 04037; 35° C.): 0.25 µg/mL
Antimicrobial Screening (MIC) (S. aureus MRO 00048; 35° C.): 0.25 µg/mL
Antimicrobial Screening (MIC) (S. aureus MRO 00059; 35° C.): 0.25 µg/mL
Antimicrobial Screening (MIC) (S. aureus MRO 00055; 35° C.): 0.5 µg/mL
Antimicrobial Screening (MIC) (S. aureus MRO 002053; 35° C.): 0.25 µg/mL
Antimicrobial Screening (MIC) (S. aureus MRO 0001; 35° C.): 0.5 µg/mL
Antimicrobial Screening (MIC) (S. aureus ATCC 43300; 35° C.): 0.25 µg/mL
Antimicrobial Screening (MIC) (S. aureus ATCC 29213; 35° C.): 0.5 µg/mL
Antimicrobial Screening (MIC) (S. aureus MRO 00030; 35° C.): 0.25 µg/mL
Antimicrobial Screening (MIC) (S. aureus MRO 0003; 35° C.): 0.5 µg/mL
Antimicrobial Screening (MIC) (S. aureus MRO 00013; 35° C.): 0.5 µg/mL
Antimicrobial Screening (MIC) ([1]; 35° C.): 0.25 µg/mL
Antimicrobial Screening (MIC) ([2]; 35° C.): 0.25 µg/mL
Antimicrobial Screening (MIC) ([3]; 35° C.): 0.5 µg/mL
Antimicrobial Screening (MIC) (S. epidermidis MRO 02045; 35° C.): 0.25 µg/mL
Antimicrobial Screening (MIC) (S. epidermidis MRO 02002; 35° C.): 0.25 µg/mL
Antimicrobial Screening (MIC) (S. epidermidis MRO 02095; 35° C.): 0.25 µg/mL
Antimicrobial Screening (MIC) ([4]; 35° C.): 1 µg/mL
Antimicrobial Screening (MIC) ([5]; 35° C.): 1 µg/mL
Antimicrobial Screening (MIC) ([6]; 35° C.): 1 µg/mL
Antimicrobial Screening (MIC) (E. faecalis ATCC 29212; 35° C.): 0.25 µg/mL
Antimicrobial Screening (MIC) (E. faecalis MRO 04035; 35° C.): 0.25 µg/mL
Antimicrobial Screening (MIC) (E. faecalis ATCC 51299; 35° C.): 0.25 µg/mL
Antimicrobial Screening (MIC) (E. faecalis MRO 04205; 35° C.): 0.25 µg/mL
Antimicrobial Screening (MIC) (E. faecalis MRO 04050; 35° C.): 0.25 µg/mL

Source: patent US20100234390A1, “NOVEL COMPOUND AND THEIR USE” (priority 2007, published 2010)
